The test system of one assay is CL1-5 cells. Particulars: Lin and Wang 2007; cited from earlier work.
For the next assay, the system named is SETDB1 protein. Description: Western blot for SETDB1 protein after drug treatment of SETDB1 amplified lung cancer cell lines. Type of assay: cell-based, human. Particulars: DMS-273, NCI-H1437 and NCI-H1395. As to the method:
(§1) • Figure 1. Determination of SETDB1 gene amplification and its association with RNA and protein overexpression in lung cancer cell lines. (A) Assessment of SETDB1 copy number by quantitative genomic PCR. Amplification frequency of SETDB1 (evaluated with SYBR Green) was calculated by the standard curve method using the 7900HT SDS program. To define an internal control gene chromosome 1p36.23 was chosen because it is the least aneuploid region among our cell lines (PEX19 gene). DNA from normal lung was used as the reference standard. Results are reported as n-fold copy number increase relative to the PEX19 gene. […] The internal control gene was ACTB (beta-actin). • Figure 2. Growth-promoting effects of SETDB1 in lung cancer. (A) Stable down-regulation of the SETDB1 gene by short hairpins using two different target sequences for DMS-273 (clones A30/A31 and clone B32-63) and NCI-H1437 (clones A56-B and B46-9). […] Tumor volume was monitored over time and the tumor was excised and weighed at 30 days. […] (A) Effect of SETDB1 on the invasion potential of A549 cells determined by the matrigel invasion assay. […] Invasive cells were counted using ImageJ 1.45s (Wayne Rasband, National Institutes of Health, USA) and the percentage of invasive cells was represented. Results are the mean of at least three experiments by duplicate and the significance was determined using ANOVA-test. *p<0.05. […]

The subject of another assay is DMS-273. The experiment in a line: MTT cell viability assay. As to conditions: scramble shRNA DMS-273 cells compared with SETDB1-depleted clones; triplicate. Type of assay: cell-based, human. The method, then: as §1
For the next assay, the system named is CL1-5. As to conditions: Lin and Wang 2007; cited from earlier work.
The test system of the next assay is NCI-H1395. Description: MTT cell viability assay. As to conditions: Homo sapiens, SETDB1 amplified cell line NCI-H1395. Type of assay: cell-based. The source says:
(§2) The observation that the presence of the SETDB1 gene amplification with associated overexpression was critical for the tumorigenesis of these lung cancer cells prompted the inventors to examine whether drugs targeting this pathway might find a therapeutic "niche" for their use in the described subset of cases with extra copies of this gene. No highly specific inhibitor for SETDB1 has been described in the publicly available literature, but one agent-mithramycin- is a clinically approved anti-tumor antibiotic that binds to DNA by interacting with the minor groove and displacing transcriptional activators that bind to GC-rich binding sites. Thus, the inventors tested whether a putative growth-inhibitory effect of this drug in lung cancer cells was dependent on SETDB1 expression. First, western blot analyses for the SETDB1 protein in the SETDB1 amplified lung cancer cell lines DMS-273, NCI-H1437 and NCI-H1395 upon the use of the drug were developed. […] Experiments for each clone were performed in triplicate. Furthermore, we extended the cell viability experiments, using the MTT assay, to the other two SETDB1 amplified lung cancer cell lines (NCI-H1437 and NCI-H1395) and to three SETDB1 non-amplified lung cancer cell lines (DMS-114, A549 and NCI-H1299). […] Thus, the presence of SETDB1 gene amplification could "mark" lung cancer cells that are more sensitive to the inhibition of cell viability associated with the use of mithramycin.
(Tetrazolium assays rely on reduction of a dye to a coloured formazan, in cell work by metabolically active cells.)

Another assay relates to DMS-114. The experiment in a line: MTT cell viability assay. Format: cell-based. As to conditions: Homo sapiens, SETDB1 non-amplified cell line DMS-114.
Description: as §2

The test system of the next assay is A549. The experiment in a line: MTT cell viability assay. Format: cell-based. Particulars: Homo sapiens, SETDB1 non-amplified cell line A549.
Description: as §2

In the next assay the test system is NCI-H1437. The experiment in a line: MTT cell viability assay. Type of assay: cell-based. Particulars: Homo sapiens, SETDB1 amplified cell line NCI-H1437. As to the method: as §1
A further assay deals with NCI-H1299. The experiment in a line: MTT cell viability assay. Type of assay: cell-based. As to conditions: Homo sapiens, SETDB1 non-amplified cell line NCI-H1299. As to the method: as §1
Another assay has as its system H647. As to conditions: Lin and Wang 2007; cited from earlier work.

SMILES strings stand for the structures.

On to `CO[C@H](C(=O)[C@@H](O)[C@@H](C)O)[C@@H]1Cc2cc3cc(O[C@H]4C[C@@H](O[C@H]5C[C@@H](O)[C@H](O)[C@@H](C)O5)[C@H](O)[C@@H](C)O4)c(C)c(O)c3c(O)c2C(=O)[C@H]1O[C@H]1C[C@@H](O[C@H]2C[C@@H](O[C@H]3C[C@](C)(O)[C@H](O)[C@@H](C)O3)[C@H](O)[C@@H](C)O2)[C@H](O)[C@@H](C)O1` [mithramycin, (1S)-5-deoxy-1-C-((2S,3S)-7-{[2,6-dideoxy-3-O-(2,6-dideoxy-β-D-arabino-hexopyranosyl)-β-D-arabino-hexopyranosyl]oxy}-3-{[2,6-dideoxy-3-C-methyl-β-D-ribo-hexopyranosyl-(1→3)-2,6-dideoxy-β-D-arabino-hexopyranosyl-(1→3)-2,6-dideoxy-β-D-arabino-hexopyranosyl]oxy}-5,10-dihydroxy-6-methyl-4-oxo-1,2,3,4-tetrahydroanthracen-2-yl)-1-O-methyl-D-xylulose], for which, in the assay on CL1-5 cells, the invasion phenotypes entry is reported as “inhibiting the invasion phenotypes”. Moreover, the SETDB1 expression entry in the assay on SETDB1 protein is “inhibit SETDB1 expression”. Also, the “sensitivity to the growth-inhibitory effect” value with DMS-273 was “significantly more sensitive”. The “growth of human lung cancer cell lines” value in the assay on CL1-5 and in the assay with H647 was “inhibiting the growth” throughout. In addition, the EC50 with NCI-H1395 is 14.7 nM; with DMS-114, 348 nM; in the assay with A549, 122 nM; in the assay with NCI-H1437 it was 13.6 nM; with NCI-H1299 it was 32 nM.

The term EC50 denotes the concentration at which the effect is half-maximal. Higher therefore signals weaker potency.

The values are drawn from EP2813571A1, “Method for the treatment of lung cancer” (Institut d'Investigació Biomèdica de Bellvitge (IDIBELL), priority 2013, dated 2014).
